Laboratory results published in paper PMC11054282, “Structural Investigations on 2-Amidobenzimidazole Derivatives as New Inhibitors of Protein Kinase CK1 Delta” (Pharmaceuticals, 2024).
Where “and” joins values, the source holds several entries; their conditions need not be identical. Equal entries are not always repeated.

Key:
truncated CK1δ = molecular target: T1, truncated CK1δ (Homo sapiens, UniProt P48730); assay: CK1δ luminescent kinase assay (Kinase Glo kit); assay type: biochemical; conditions: for IC50: truncated recombinant human CK1δ (aa 1-294), casein substrate, 2 μM ATP, mean ± SE of three independent experiments in duplicate
T1 construct: truncated CK1δ, recombinant human, GST-tagged, aa 1-294, Merck Millipore; GST; purchased Merck Millipore, Merck KGaA, Darmstadt, Germany
T1 sequence (P48730 1-294): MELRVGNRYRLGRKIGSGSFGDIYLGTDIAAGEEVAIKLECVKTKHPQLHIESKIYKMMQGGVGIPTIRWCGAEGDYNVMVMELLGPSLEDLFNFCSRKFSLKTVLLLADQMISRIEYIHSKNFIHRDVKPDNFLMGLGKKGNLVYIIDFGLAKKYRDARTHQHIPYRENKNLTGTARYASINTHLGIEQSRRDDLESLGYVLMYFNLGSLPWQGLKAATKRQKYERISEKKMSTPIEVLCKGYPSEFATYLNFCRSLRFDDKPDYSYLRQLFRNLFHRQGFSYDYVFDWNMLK
Method: The newly synthesized derivatives 1–32 were tested on truncated CK1δ using the luminescent kinase assay Kinase Glo® KIT (Promega Italy S.r.l., Milan, Italy), and the results are reported in Table 1 and Table 2. Derivatives were tested at a fixed dose of 40 μM; then, those showing a residual kinase activity percentage lower than 50% were tested at 10 μM.
The inhibitory activity of synthesized compounds on CK1δ has been carried out following a procedure for a luminescence-based assay (KinaseGlo® kit, Promega Italy Srl, Milan, Italy) already reported in the literature. Luminescent assays were performed in white 96-well plates in a 40 μL final volume. The buffer used is a milliq water solution of 50 mM HEPES (pH 7.5), 1 mM EDTA, 1 mM EGTA, and 15 mM MgCl2. In a typical assay, 10 μL of inhibitor solution (desired concentrations were obtained by diluting in buffer a starting 10 mM solution in DMSO) and 10 μL of enzyme solution (truncated CK1δ, recombinant human, GST-tagged, aa 1-294, Merck Millipore, Merck KGaA, Darmstadt, Germany) were added to the well, followed by 20 μL of assay buffer containing casein substrate (casein solution from bovine milk, 5% in water, Sigma-Aldrich, Merck KGaA, Darmstadt, Germany) and ATP, at a final concentration of 0.05% and 2 μM, respectively. The final enzyme concentration was 6.5 nM. […] After 60 min of incubation at 30 °C, the enzymatic reactions were stopped with the addition of 40 μL of KinaseGlo reagent (Promega Italy Srl, Milan, Italy). The luminescence signal (relative light unit, RLU) was recorded after 10 min at 25 °C using a Tecan Infinite M100. […] IC50 values were evaluated using ten different inhibitor concentrations ranging from 100 to 0.026 μM. Data were analyzed using Excel and GraphPad Prism software (version 8.0).

CK1δ = conditions: compound IV (SR 2890), Figure 1; read-out: CK1δ IC50; cited from earlier work

Structure (SMILES) | IC50 (truncated CK1δ) | melting point | fold less potent than the regioisomer 18 (CK1δ) (truncated CK1δ; 19 (4-NO2) versus 18 (5-NO2)) [fold] | IC50 (CK1δ) [µM]
O=C(Cn1ccc(C(=O)Nc2nc3ccccc3[nH]2)n1)c1ccccc1 [Compound 1, N-(1H-Benzimidazol-2yl)-1-(2-oxo-2-phenylethyl)-1H-pyrazole-3-carboxamide] | > 40 µM | 220 to 221 °C |  | 
Cc1ccc2[nH]c(NC(=O)c3ccn(CC(=O)c4ccccc4)n3)nc2c1 [Compound 2, N-(5(6)-Methyl-1H-benzimidazol-2yl)-1-(2-oxo-2-phenylethyl)-1H-pyrazole-3-carboxamide] | < 15 µM and 14.6 µM | 199 to 200 °C |  | 
O=C(Cn1ccc(C(=O)Nc2nc3cc(Cl)ccc3[nH]2)n1)c1ccccc1 [Compound 3, N-(5(6)-Chloro-1H-benzimidazol-2yl)-1-(2-oxo-2-phenylethyl)-1H-pyrazole-3-carboxamide] | < 15 µM and 1.8 µM | 200 to 203 °C |  | 
COc1ccccc1C(=O)Cn1ccc(C(=O)Nc2nc3ccccc3[nH]2)n1 [Compound 4, N-(1H-Benzimidazol-2yl)-1-(2-(2-methoxyphenyl)-2-oxoethyl)-1H-pyrazole-3-carboxamide] | > 40 µM | 168 to 170 °C |  | 
COc1ccccc1C(=O)Cn1ccc(C(=O)Nc2nc3cc(C)ccc3[nH]2)n1 [Compound 5, N-(5(6)-Methyl-1H-benzimidazol-2yl)-1-(2-(2-methoxyphenyl)-2-oxoethyl)-1H-pyrazole-3-carboxamide] | > 40 µM | 201 to 203 °C |  | 
COc1ccccc1C(=O)Cn1ccc(C(=O)Nc2nc3cc(Cl)ccc3[nH]2)n1 [Compound 6, N-(5(6)-Chloro-1H-benzimidazol-2yl)-1-(2-(2-methoxyphenyl)-2-oxoethyl)-1H-pyrazole-3-carboxamide] | < 15 µM and 13.2 µM | 219 to 221 °C |  | 
O=C(Nc1nc2ccccc2[nH]1)c1cc[nH]n1 [Compound 7, N-(1H-Benzimidazol-2-yl)-1H-pyrazole-3(5)-carboxamide] | > 40 µM | > 300 °C |  | 
Cc1ccc2[nH]c(NC(=O)c3cc[nH]n3)nc2c1 [Compound 8, N-(5(6)-Methyl-1H-benzimidazol-2-yl)-1H-pyrazole-3(5)-carboxamide] | > 40 µM | > 300 °C |  | 
O=C(Nc1nc2cc(Cl)ccc2[nH]1)c1cc[nH]n1 [Compound 9, N-(5(6)-Chloro-1H-benzimidazol-2-yl)-1H-pyrazole-3(5)-carboxamide] | > 40 µM | > 300 °C |  | 
O=C(Nc1nc2cc(C(F)(F)F)ccc2[nH]1)c1cc[nH]n1 [Compound 10, 1H-Pyrazole-N-(5(6)-trifluoromethyl-1H-benzimidazol-2-yl)-3(5)-carboxamide] | > 40 µM | > 300 °C |  | 
COc1ccc2[nH]c(NC(=O)c3cc[nH]n3)nc2c1 [Compound 11, N-(5(6)-Methoxy-1H-benzimidazol-2-yl)-1H-pyrazole-3(5)-carboxamide] | > 40 µM | > 300 °C |  | 
O=C(Nc1nc2cc([N+](=O)[O-])ccc2[nH]1)c1cc[nH]n1 [Compound 12, N-(5(6)-Nitro-1H-benzimidazol-2-yl)-1H-pyrazole-3(5)-carboxamide] | > 40 µM | > 300 °C |  | 
O=C(Cc1cc[nH]n1)Nc1nc2ccccc2[nH]1 [Compound 13, N-(1H-benzimidazol-2-yl)-2-(1H-pyrazol-3(5)-yl)acetamide] | 4.21 ± 1.92 µM | 295 to 297 °C |  | 
Cc1ccc2[nH]c(NC(=O)Cc3cc[nH]n3)nc2c1 [Compound 14, N-(5(6)-Methyl-1H-benzimidazol-2-yl)-2-(1H-pyrazol-3(5)-yl)acetamide] | 1.64 ± 0.31 µM | 257 °C (dec.) |  | 
O=C(Cc1cc[nH]n1)Nc1nc2cc(Cl)ccc2[nH]1 [Compound 15, N-(5(6)-Cloro-1H-benzimidazol-2-yl)-2-(1H-pyrazol-3(5)-yl)acetamide] | 0.485 ± 0.31 µM | 286 to 288 °C |  | 
O=C(Cc1cc[nH]n1)Nc1nc2cc(C(F)(F)F)ccc2[nH]1 [Compound 16, 2-(1H-Pyrazol-3(5)-yl)-N-(5(6)-trifluoromethyl-1H-benzimidazol-2-yl)acetamide] | 1.74 ± 0.32 µM | 275 to 277 °C |  | 
COc1ccc2[nH]c(NC(=O)Cc3cc[nH]n3)nc2c1 [Compound 17, N-(5(6)-Methoxy-1H-benzimidazol-2-yl)-2-(1H-pyrazol-3(5)-yl)acetamide] | 6.27 ± 0.95 µM | 239 to 240 °C |  | 
O=C(Cc1cc[nH]n1)Nc1nc2cc([N+](=O)[O-])ccc2[nH]1 [Compound 18, N-(5(6)-Nitro-1H-benzimidazol-2-yl)(1H-pyrazol-3(5)-yl)-2-acetamide] | 0.12 ± 0.083 µM | 272 to 274 °C |  | 
O=C(Cc1cc[nH]n1)Nc1nc2c([N+](=O)[O-])cccc2[nH]1 [Compound 19, N-(4(7)-Nitro-1H-benzimidazol-2-yl)(1H-pyrazol-3(5)-yl)-2-acetamide] | 1.22 ± 0.23 µM | 280 to 282 °C | 10 | 
Fc1cccc(-n2cnc3c(NCc4nc5ccc(Cl)cc5[nH]4)nc(N4CCNCC4)nc32)c1 [IV] |  |  |  | 0.005

Now from value to compound, other results behind:

IC50 (truncated CK1δ) | melting point | fold less potent than the regioisomer 18 (CK1δ) (truncated CK1δ; 19 (4-NO2) versus 18 (5-NO2)) [fold] | Structure (SMILES) | IC50 (CK1δ) [µM]
1 ± 0.18 µM |  |  | CC(C)(C)c1ccc2[nH]c(NC(=O)Cc3cc[nH]n3)nc2c1 [Compound 20, N-(5(6)-terButyl-1H-benzimidazol-2-yl)(1H-pyrazol-3(5)-yl)-2-acetamide] | 
5.99 ± 0.87 µM | 270 to 274 °C |  | O=C(Cc1cc[nH]n1)Nc1nc2cc(OC(F)(F)F)ccc2[nH]1 [Compound 21, 2-(1H-Pyrazol-3(5)-yl)-N-(5(6)-trifluoromethoxy-1H-benzimidazol-2-yl)acetamide] | 
0.98 ± 0.35 µM | > 300 °C |  | O=C(Cc1cc[nH]n1)Nc1nc2cc(Cl)c(Cl)cc2[nH]1 [Compound 22, N-(5,6-Dichloro-1H-benzimidazol-2-yl)-2-(1H-pyrazol-3(5)-yl)acetamide] | 
0.0986 ± 0.0394 µM | 267 to 268 °C |  | N#Cc1ccc2[nH]c(NC(=O)Cc3cc[nH]n3)nc2c1 [Compound 23, N-(5(6)-Cyano-1H-benzimidazol-2-yl)(1H-pyrazol-(3)5-yl)-2-acetamide] | 
2.53 ± 0.38 µM | 290 to 292 °C |  | NC(=O)c1ccc2[nH]c(NC(=O)Cc3cc[nH]n3)nc2c1 [Compound 24] | 
> 40 µM | 285 to 287 °C |  | NS(=O)(=O)c1ccc2[nH]c(NC(=O)Cc3cc[nH]n3)nc2c1 [Compound 25, 2-(1H-Pyrazol-3(5)-yl)-N-(5(6)-sulfamoyl-1H-benzimidazol-2-yl)acetamide] | 
< 15 µM and 10.7 µM | 238 to 240 °C |  | CNS(=O)(=O)c1ccc2[nH]c(NC(=O)Cc3cc[nH]n3)nc2c1 [Compound 26] | 
> 40 µM |  |  | CC(=O)Nc1ccc2[nH]c(NC(=O)Cc3cc[nH]n3)nc2c1 [Compound 27, N-(5(6)-Acetamido-1H-benzimidazol-2-yl)(1H-pyrazol-3(5)-yl)acetamide] | 
> 40 µM | 292 to 293 °C |  | O=C(Cc1cc[nH]n1)Nc1nc2cc(NC(=O)c3ccccc3)ccc2[nH]1 [Compound 28, N-(2-(2-(1H-Pyrazol-3-yl)acetamido)-1H-benzimidazol-3(5)-yl)benzamide] | 
> 40 µM | 280 °C (dec.) |  | O=C(Cc1cc[nH]n1)Nc1nc2c(NC(=O)c3ccccc3)cccc2[nH]1 [Compound 29, N-(2-(2-(1H-Pyrazol-3-yl)acetamido)-1H-benzimidazol-4(7)-yl)benzamide] | 
< 15 µM and 2.59 µM | 269 to 271 °C |  | O=C(Cc1cc[nH]n1)Nc1nc2cc(-n3cncn3)ccc2[nH]1 [Compound 30, N-(5(6)-(1H-1,2,4-triazol-1-yl)-1H-benzimidazol-2-yl)(1H-pyrazol-3(5)-yl)acetamide] | 
< 15 µM and 1.54 µM | > 300 °C |  | O=C(Cc1cc[nH]n1)Nc1nc2cc(-c3nnn[nH]3)ccc2[nH]1 [Compound 31, N-(5(6)-(1H-tetrazol-5-yl)-1H-benzimidazol-2-yl)(1H-pyrazol-3(5)-yl)acetamide] | 
20.1 ± 7.3 µM |  |  | Cn1c(NC(=O)Cc2cc[nH]n2)nc2ccc(Cl)cc21 [Compound 32, N-(6-Chloro-1-methyl-benzimidazol-2-yl)(1H-pyrazol-3(5)-yl)acetamide] | 
